Experiments:
mice = conditions: mouse, in vivo
Description: AT: Single Dose Toxicity Pretest
Male Slc:ICR mice (5-week-old) were used. Each group has 3 to 5 mice and each mouse was fasted, but allowed free access to water, for 4 to 5 hours from 9 a.m. in the test day. Then, 2,000 mg/10 ml/kg of the sample compound dissolved or suspended in an aqueous solution of 0.5% sodium carboxymethyl cellulose was orally administered thereto. To a control, only the vehicle was administered. […] The body weight was measured before and after the fasting as well as at the same time everyday. The dead animals were immediately subjected to autopsy and their organs were observed microscopically. Also, the living animals were sacrificed with ether or carbon dioxide one week after the administration and then their organs were observed microscopically.
The toxicity at the single dose of 2,000 mg/kg of the sample compound was expressed as being classified into 5 levels.
5: Mortality rate is 0%; no toxicity is found at all both in behavior and organs.
4: Mortality rate is 0%; while no toxicity is found in organs, slight toxicity is observed in behavior and body weight increase.
3: While there is a dead animal (though not all the animals are dead), no toxicity is found in organs.
2: Regardless of whether there is a dead animal or not, toxicity is found in organs.
1: All the animals are dead.

[1] = test system: stress ulcer formation (rats); assay: WIS: Restraint and Water Immersion Stress-Induced Ulcer Inhibition Test; assay type: in vivo, rat (male Crj:SD or Slc:SD); conditions: rat, 100 mg/kg, oral, 7 hours water immersion stress
Description: WIS: Restraint and Water Immersion Stress-Induced Ulcer Inhibition Test
The degree of inhibition of the stress ulcer formation is tested.
Male Crj:SD or Slc:SD rats (6 to 7-week-old) were fasted overnight, but allowed free access to water. Each group has 5 to 8 of these rats. […] To a control group, the vehicle was administered. 10 minutes later, the rats were placed in a stress cage and immersed to the level of xipfoid process in a water bath (21° C.) for 7 hours. At the end of the stress, the rats were sacrificed by inhalation of ether or carbon dioxide. Then, the stomach of each was removed, inflated by injecting 10 ml of 5% formalin neutral buffer solution, and immersed in 1% formalin neutral buffer solution for 30 minutes or more to be fixed. The stomach was incised along the greater curvature and then the length of each erosion in the glandular portion was determined under dissecting microscope. The sum of the length of erosions per stomach was defined as ulcer index (UI).
The effect obtained when 100 mg/kg of the sample compound had been administered was expressed as ulcer formation inhibitory rate (%) as follows:
ulcer formation inhibitory rate (%)=(1-(UI in sample group/UI in control

[2] = test system: isolated gastric fundic gland; assay: CAP: Acid Secretion Inhibition Test In Vitro ([14C]-aminopyrine uptake test); assay type: cell-based, Japanese White rabbit; conditions: 10^-5 M, histamine 10^-5 M, 37° C.; for inhibition at 10 µM: Oryctolagus cuniculus, 40 min, read-out: CAP: acid secretion inhibitory rate
Description: CAP: Acid Secretion Inhibition Test In Vitro
The acid secretion inhibitory activity in a cell level is studied. It can also be used for studying the mechanism of the effect. […]
ii-a) Preparation of isolated gastric fundus gland suspension
First, an isolated gastric fundic gland sample was prepared. Namely, a male Japanese White rabbit (2.5 to 3 kg) was anesthetized to death with Nembutal™ and then the abdomen was incised. Immediately thereafter, the stomach was removed and, after its pyloric and cardiac antrum were severed, incised along its greater curvature into two sheets. The gastric contents adhering to the mucosal surface was washed out with ice-cooled PBS (-) and then carefully washed therein. The gastric wall was spread on a cork board with its mucosal surface facing up and the feed and mucus thereon were completely removed with sterile gauze. The mucosa was separated therefrom by a spatula and then collected in ice-cooled PBS (-). After being washed twice with PBS (-), the mucosa was minced into 2-3 mm^3 pieces by scissors. These pieces were further washed twice with a nutrient solution. The nutrient solution comprises 132.4 mM of NaCl, 5.4 mM of KCl, 5 mM of Na2 HPO4. 12H2 O, 1 mM of NaH2 PO4. 2H2 O, 1.2 mM of MgSO4, 1 mM of CaCl 2, 25 mM of HEPES, 2 mg/ml of glucose, and 1 mg/ml of BSA. Into 70 ml of the nutrient solution containing 1 mg/ml of collagenase, minced mucosal pieces were dispersed and intensely stirred in a conical flask with a stirrer at 37° C. for 40 to 60 minutes. During this period, 100% O2 was sprayed on the nutrient solution surface and the pH was appropriately measured such that it was immediately adjusted to pH 7.4, when the value was therebelow, with a base. The nutrient solution was added to the reaction solution so as to attain the total amount of about 200 ml. After being filtered through a mesh, the suspension was divisionally introduced into 50 ml centrifuge tubes and left for 15 minutes such that gastric fundic gland was deposited. The supernatant was repeatedly removed by an aspirator, dispersed in the nutrient solution, and then left such that the gastric fundic gland was washed three times. At this time, without using a pipette, the suspension was alternately introduced into two centrifuge tubes so as to effect dispersion. The number of cells was counted under microscope and adjusted to 1.6×10^6 cells/ml. […]
ii-b) [^14 C]-aminopyrine uptake test
Then, [^14 C]-aminopyrine uptake test was performed. After an Eppendorf tube was weighed, 10 μl (final concentration: 10^-5 M) of histamine dissolved in the above-mentioned nutrient solution, 10 μl (final concentration: 10^-5 M) of the test compound dissolved in DMSO, and 10 μl (final concentration: 0.05 μCi/ml) of [^14 C]-aminopyrine diluted with the nutrient solution were introduced therein and then 970 μl of the isolated gastric fundic gland suspension prepared above was added thereto. Subsequently, this mixture was shaken at 37° C. for 40 minutes at 125 cycles/minute. After being centrifuged for 30 minutes, 200 μl of its supernatant was collected into a mini-vial, while the rest was removed by an aspirator. The gland pellet was completely dried as the tube with its lid being opened was kept for one night in a drying oven at 80° C. and then the lid was closed and the weight was determined at room temperature. Then 100 μl of 1N KOH was added thereto and the tube with its lid being closed was treated at 60° C. for 1 to 2 hours so as to dissolve the pellet. Then, the contents thereof were transferred to a mini-vial. Into the mini-vial containing the supernatant or gland pellet, 4 ml of Atomlite™ was added and then the radioactivity was measured by a liquid scintillation counter. Here, after the radioactivity of the gland pellet was corrected by using a sample in which 20 mM of NaSCN was added so as to cancel the hydrogen ion concentration gradient, the integration ratio of aminopyrine specifically trapped by the gland pellet was calculated. […]

[3] = MTT: Cell Damaging and Protecting Effect Test; assay type: cell-based, Japanese White rabbit; conditions: rabbit, gastric mucosa cells, 10^-4 M, 37° C., smaller value is better, read-out: MTT: cell damaging rate
Description: MTT: Cell Damaging and Protecting Effect Test
It is confirmed that there is no toxicity in cell level. Those having a toxicity in cell level are inappropriate as an anti-ulcer drug.
A male Japanese White rabbit (2.5 to 3 kg) was anesthetized to death by Nembutal™ and, immediately thereafter, its stomach was removed. The greater curvature of the stomach was incised so as to remove the stomach contents therefrom. After the mucosal surface was washed with HBSS (Hanks' Balanced Salt Solution), the stomach in ice-cooled HBSS was transferred to a laboratory. Then, after the pyloric antrum was removed, the gastric corpus mucosa was separated by a spatula and then minced into 2 to 3 mm^3 pieces in BME (Basal Medium Eagle). Thereafter, these pieces were shaken at 120 to 130 cycles/minute for 15 minutes at 37° C. in BME 60 ml containing 280 U/ml of dispase and 30 to 50 U/ml of collagenase. Here, the concentration of collagenase was appropriately changed for each lot in view of the state of cells. The pieces were washed twice with EBSS (Earle's Balanced Salt Solution) containing 1 mM of EDTA and then shaken in MEM (Minimum Essential Medium) containing 1 mM of EDTA at 37° C. for 5 minutes. Subsequently, they were shaken in the dispase and collagenase having the same concentrations as those mentioned above for 15 minutes so as to remove the supernatant and then further shaken at 37° C. for 50 to 60 minutes at 120 to 130 cycles/minute. Then, after being washed twice with HBSS, Ham F12 containing 2% of Ultrocer GT™ was used to attain the concentration of 1×10^6 cells/ml. Thus formed suspension was dispensed in each well of a 96-well plate by 200 μl. The plate was incubated in the atmosphere composed of 5% CO2 and 95% air at 37° C. for three days so as to attain a confluent state and then subjected to MTT assay.
The sample compound was dissolved in DMSO so as to attain a concentration of 10^-2 M and then diluted with HBSS containing 2% of Ultrocer G™ so as to attain a final concentration of 10^-4 M. To each group, which 8 wells were used for, 10 μl of MTT reagent was added immediately after 100 μl of the medium in each well was exchanged for same volume of the resulting solution of the sample compound. After being incubated in an atmosphere composed of 5% CO2 and 95% air at 37° C. for 4 hours, thus formed solution was centrifuged and then its supernatant was discarded. Subsequently, 100 μl of 100% ethanol was added to the residue so as to dissolve MTT formazan. Then, the absorbance (OD: 570 to 630) was measured by a microplate reader. This method utilizes a phenomenon in which MTT is changed to MTT formazan only by mitochondria of living cells so as to change color.
The cell damaging or cell protecting effect of the sample compound at the final concentration of 10^-4 M was expressed as cell damaging rate (%) as follows:
cell damaging rate (%)=(1-(absorbance in sample group/absorbance in control
Accordingly, the smaller value is better in the cell damaging rate.

[4] = test system: gastric acid secretion (pylorus-ligated, histamine-stimulated rats); assay: VOL, TAO: Acid Secretion Inhibition Test In Vivo; set-up: species or system rat (male Crj:Donryu); conditions: rat, 100 mg/kg, oral; histamine 30 mg/kg s.c.
Description: VOL, TAO: Acid Secretion Inhibition Test In Vivo
Inhibitory effect on acid secretion in vivo is confirmed.
Male Crj:Donryu rats (7-week-old) were fasted overnight but allowed free access to water. In each group, 8 to 10 of these rats were used under urethane anesthesia (1.25 g/kg). […] 30 minutes later, the abdomen of each was incised and the pylorus was ligated. 30 minutes after the ligation, 30 mg/kg of histamine dissolved in physiological saline was subcutaneously administered and, 3 hours thereafter, the rat was sacrificed with carbon dioxide. Immediately thereafter, each stomach was removed and the gastric contents were collected and each volume was determined. The total acid output was determined by titration of the gastric juice with 0.1N NaOH.
With respect to the gastric juice volume (VOL) and the total acid output (TAO), the effects obtained when 100 mg/kg of the sample compound had been administered were expressed as their respective inhibitory rates (%) as follows:
each inhibitory rate (%)=(1-(value in sample group/value in control

gastric mucosa = assay: PD: Gastric Mucosal Integrity Test; assay type: in vivo, rat (male CDj:SD); set-up: key: 5: Same as the control with no recognizable damage at all.; 4: Though a slight PD-decreasing tendency suggesting a slight possibility of mucosal damage is found, there is no problem.; 3: Though a weak decrease in PD and a possibility of a weak mucosal damage is recognized, there is no substantial problem.; 2: Medium degree of decrease in PD is found and a mucosal damage is recognized.; 1: Heavy degree of decrease in PD is found and a remarkable mucosal damage is recognized; conditions: rat, 100 mg/kg into chamber, 60 minutes
Description: PD: Gastric Mucosal Integrity Test
In this case, since the sample compound has a necrotizing effect, it is inappropriate as an anti-ulcer medicament.
Therefore, the gastric mucosal potential difference (PD), which reflects the integrity of the gastric mucosa, is measured so as to confirm that the sample compound has no damaging effect on gastric mucosa, which is toxicity at gastric mucosal level.
Male CDj:SD rats (7 to 8-week-old) were fasted overnight, but allowed free access to water, and then, under urethane anesthesia (1.25 g/kg, i.p.), fixed to a cork board on its back. The abdomen of each rat was incised, and a small incision was made in the forestomach. Then, the inside of the stomach was washed with physiological saline heated at 37° C. From the forestomach, along the greater curvature thereof, the stomach was incised without damaging blood vessels. After the height of the cork board was adjusted on a jack, the stomach was mounted on ex vivo chamber. The area of the gastric mucosa exposed to the inside of this chamber was 2.5 cm^2. The inside of the chamber was perfused with physiological saline warmed at 37° C. by micro tube pump. By using an agar bridge containing 3M KCl, the potential difference between the chamber and the abdominal cavity was measured by a PD meter. Here, the rectal temperature was measured to control the body temperature during the experiment. […] To a control, the vehicle was administered.
The change in PD during 60 minutes after the administration of 100 mg/kg of the sample compound was collectively studied and, with reference to the positive control, classified into 5 levels as follows:
5: Same as the control with no recognizable damage at all.
3: Though a weak decrease in PD and a possibility of a weak mucosal damage is recognized, there is no substantial problem.
2: Medium degree of decrease in PD is found and a mucosal damage is recognized.
1: Heavy degree of decrease in PD is found and a remarkable mucosal damage is recognized.

Structure (SMILES) | AT: toxicity at the single dose (5 levels) (mice) | WIS: ulcer formation inhibitory rate [1] | inhibition at 10 µM [2] | cytotoxicity at 4 h, 100 µM [3] | TAO: total acid output inhibitory rate [4] | VOL: gastric juice volume inhibitory rate [4] | PD: change in gastric mucosal potential difference (5 levels) (gastric mucosa) | CAP: acid secretion inhibitory rate ([2]; 40 minutes)
CC(C)Cc1cc(C(=O)NCCc2ccncc2)ccc1OCc1ccc(F)cc1 [Example 14, 4-[2-[4-(4-fluorobenzyloxy)-3-isobutylbenzoylamino]ethyl]pyridine] | 4 | 91% | 97% | – | – | – | – | –
CC(C)=CCC/C(C)=C/COc1ccc(OC/C=C(\C)CCC=C(C)C)c(C(=O)NCCc2ccncc2)c1 [Example 5, 4-[2-(2,5-digeranyloxybenzoylamino)ethyl]pyridine] | – | 35% | 99% | -17% | – | – | – | –
CC(C)=CCC/C(C)=C/COc1ccc(C(=O)NCCSc2ccc(C(F)(F)F)cn2)cc1 [Example 12, 2-[2-(4-geranyloxybenzoylamino)ethylthio]-5-trifluoromethylpyridine] | 5 | 37% | – | -14% | -10% | -5% | 5 | –
COc1ccc(NCCNC(=O)c2ccc(OC/C=C(\C)CCC=C(C)C)cc2)cn1 [Example 9, 3-[2-(4-geranyloxybenzoylamino)ethylamino]-6-methoxypyridine] | – | 42% | 77% | 8% | – | – | – | –
CC(C)Cc1cc(C(=O)NCCc2ccncc2)ccc1OCc1ccc(F)cc1.Cl [Example 15, 4-[2-[4-(4-fluorobenzyloxy)-3-isobutylbenzoylamino]ethyl]pyridine hydrochloride] | – | 86% | – | – | – | – | – | 95.1%

— patent US5859032A, “Pyridine derivative, anti-ulcer drug, and antibacterial drug” (priority 1996, dated 1999)
